The results in this text go back to patent US20170293715A1, “SYSTEMS, METHODS AND SOFTWARE FOR RANKING POTENTIAL GEROPROTECTIVE DRUGS” (Insilico Medicine, Inc., priority 2014, published 2017).

Several values for one entry are separate records, joined by “and”; a condition that tells them apart may be missing. Equal entries are not always repeated.

What all share (type): cell-based
Experiment [1] concerns Hedgehog signaling pathway. Nature of the experiment: PAS score of Hedgehog pathway in late-passage human fibroblasts cultured with putative geroprotectors. Also on record: unit of the concentration uncertain. Conditions: 48 hours, aged human fibroblasts (aliquot C) vs aliquot A control. On the procedure:
(§1) PASp=ΣNIInp×ARRnp×BTIFn×lg(CNRn)
The culture of human fibroblasts was isolated from skin of a healthy adult donor and cultured for five passages in DMEM/F12 medium supplemented by 10% FBS. The tissue sample was obtained with the written consent of a donor according to EU and local ethical guidelines. An aliquot containing ˜10 million cells was frozen in liquid nitrogen (aliquot A), whereas the remaining part of the cell culture was grown for 20 additional passages in the same medium. The cells were then harvested and stored in liquid nitrogen (aliquot B). Aliquot B cells were then cultured for two additional passages and then cultured for 48 hours in the presence of four putative geroprotector drugs. The resulting cells were harvested (aliquot C). The transcriptomes of the aliquots A, B and C were investigated with the Illumina HT12 v4 gene expression microarrays (Illumina, USA). In such a way we profiled expression of the genes implicated in the functioning of the following ten signaling pathways: AHR, AKT, Circadian, DNA repair mechanisms, EGFR, ERK signaling, Estrogen pathway, FLT3, Growth hormone, Hedgehog. The information about pathway configuration and functional roles of the individual genes was taken from the public database provided by SABiosciences (SABiosciences, a Qiagen company. Using Student statistical criterion and a threshold p-value <0.05, we identified a list of the differential genes and calculated for them CNRn values. The set of gene expression data corresponding to the “aliquot A” group of samples was taken as the control. The data were processed with the algorithm for the calculation of PAS, and the following pathway activation data were obtained (Table 9).
Zero PAS value means identical signaling pathway activation pattern in the older (aliquots B and C) and younger (aliquot A) fibroblasts. […] The present invention proposes ranking of the geroprotector drugs according to their ability to compensate aging-related differences in signaling pathway activation reflected by the PAS values.

In experiment [2] the test system is Circadian signaling pathway. Nature of the experiment: PAS score of Circadian pathway in late-passage human fibroblasts cultured with putative geroprotectors. Conditions: 48 hours, aged human fibroblasts (aliquot C) vs aliquot A control. As to the method:
as §1
(§2) The culture of human fibroblasts was isolated from skin of a healthy adult donor and cultured for five passages in DMEM/F12 medium supplemented by 10% FBS. The tissue sample was obtained with the written consent of a donor according to EU and local ethical guidelines. An aliquot containing ˜10 million cells was frozen in liquid nitrogen (aliquot A), whereas the remaining part of the cell culture was grown for 20 additional passages in the same medium. The cells were then harvested and stored in liquid nitrogen (aliquot B). Aliquot B cells were then cultured for two additional passages and then cultured for 48 hours in the presence of four putative geroprotector drugs. The resulting cells were harvested (aliquot C). The transcriptomes of the aliquots A, B and C were investigated with the Illumina HT12 v4 gene expression microarrays (Illumina, USA). In such a way we profiled expression of the genes implicated in the functioning of the following ten signaling pathways: AHR, AKT, Circadian, DNA repair mechanisms, EGFR, ERK signaling, Estrogen pathway, FLT3, Growth hormone, Hedgehog.
(§3) Zero PAS value means identical signaling pathway activation pattern in the older (aliquots B and C) and younger (aliquot A) fibroblasts.

Experiment [3] concerns AHR signaling pathway. Nature of the experiment: PAS score of AHR pathway in late-passage human fibroblasts cultured with putative geroprotectors. Particulars: 48 hours, aged human fibroblasts (aliquot C) vs aliquot A control. As to the method:
as §1, §2, §3

Experiment [4] concerns DNA repair mechanisms. Nature of the experiment: PAS score of DNA repair pathway in late-passage human fibroblasts cultured with putative geroprotectors. Particulars: 1 mM, 48 hours, aged human fibroblasts (aliquot C) vs aliquot A control. As to the method: as §1
(§4) The culture of human fibroblasts was isolated from skin of a healthy adult donor and cultured for five passages in DMEM/F12 medium supplemented by 10% FBS. The tissue sample was obtained with the written consent of a donor according to EU and local ethical guidelines. An aliquot containing ˜10 million cells was frozen in liquid nitrogen (aliquot A), whereas the remaining part of the cell culture was grown for 20 additional passages in the same medium. The cells were then harvested and stored in liquid nitrogen (aliquot B). Aliquot B cells were then cultured for two additional passages and then cultured for 48 hours in the presence of four putative geroprotector drugs. The resulting cells were harvested (aliquot C). […] The information about pathway configuration and functional roles of the individual genes was taken from the public database provided by SABiosciences (SABiosciences, a Qiagen company. Using Student statistical criterion and a threshold p-value <0.05, we identified a list of the differential genes and calculated for them CNRn values. The set of gene expression data corresponding to the “aliquot A” group of samples was taken as the control. The data were processed with the algorithm for the calculation of PAS, and the following pathway activation data were obtained (Table 9). […]

The subject of experiment [5] is Growth hormone (GH) signaling pathway. Put plainly: PAS score of Growth hormone pathway in late-passage human fibroblasts cultured with putative geroprotectors. Conditions: 1 mM, 48 hours, aged human fibroblasts (aliquot C) vs aliquot A control. As to the method: as §1, §4
For experiment [6], the system named is human skin fibroblasts. Nature of the experiment: Reversion of PAS patterns to the younger state, ranking of geroprotectors. As to the method:
as §4

Experiment [7] has as its system FLT3 signaling pathway. Put plainly: PAS score of FLT3 pathway in late-passage human fibroblasts cultured with putative geroprotectors. Further details: unit of the concentration uncertain. Particulars: 48 hours, aged human fibroblasts (aliquot C) vs aliquot A control. As to the method:
as §1, §2, §3

On to `COC[C@H]1OC(=O)c2coc3c2[C@@]1(C)C1=C(C3=O)[C@@H]2CCC(=O)[C@@]2(C)C[C@H]1OC(C)=O` [Wortmannin], for which the “PAS Hedgehog” value in experiment [1] (0.5 (unit uncertain)) was 12 and 10. In addition, the “PAS Circadian” value in experiment [2] (0.5 mM) was 6 and 5. In addition, in experiment [3] (0.5 mM), the “PAS AHR” value is 1 and 2.
Take `NCCCCNCCCN` [Spermidine]: the “PAS Hedgehog” value in experiment [1] (1 (unit uncertain)) was 17 and 18. The “PAS DNA repair” value in experiment [4] is reported as −10. Moreover, in experiment [2] (1 mM), the “PAS Circadian” value is 5 and 8. Moreover, the “PAS AHR” value in experiment [3] (1 mM) is 3 and 2. Further, in experiment [5], the “PAS GH” value is on record as −9.
Consider `Oc1ccc(C=Cc2cc(O)cc(O)c2)cc1` [Resveratrol], for which the “PAS Hedgehog” value in experiment [1] (1 (unit uncertain)) was 9 and 11. In addition, the “PAS Circadian” value in experiment [2] (1 mM) came to 4. The “pathways whose PAS patterns were better reverted to the younger state” value in experiment [6] (1 mM, of the ten pathways tested) is listed as 7/10. For the same compound, the “ranking as geroprotector among the four tested” value in experiment [6] (combined experimental and biomathematical system) is reported as “best putative geroprotector drug”. The “PAS FLT3” value in experiment [7] (1 (unit uncertain)) was found to be 2.
As to `O=C(O)c1nn(Cc2ccc(Cl)cc2Cl)c2ccccc12` [Lonidamine], the “PAS Hedgehog” value in experiment [1] (5 (unit uncertain)) was 17 and 22. Moreover, the “PAS Circadian” value in experiment [2] (5 mM) is 5 and 7. Besides, the “PAS AHR” value in experiment [3] (5 mM) is 2 and 4. In addition, the “PAS FLT3” value in experiment [7] (5 (unit uncertain)) is on record as −1.
